Test results taken from the supplement of paper PMC10307832.

Experiments:
Test in all cases: relative viability (nuclei count vs DMSO), 5 days (fraction); higher = more cells survive
[1] = compound: CCn1c(-c2nonc2N)nc2c(C#CC(C)(C)O)ncc(OC[C@H]3CCCNC3)c21 + COc1cc2c(Oc3ccc(NC(=O)C4(C(=O)Nc5ccc(F)cc5)CC4)cc3F)ccnc2cc1OCCCN1CCOCC1 [Foretinib] (partner 0.25 µM)
In short: (§1)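 Each reported value is a median over duplicate plates. It expresses relative viability: treated-well nuclei count divided by vehicle-well nuclei count. Lung cancer cell lines in 1536-well plates were dosed by pin tool a day after seeding, alone with one drug or with a fixed anchor-drug dose plus five library-drug doses (not always all listed) in √10 steps, and nuclei were counted after 5 days.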

[2] = compound: CCOC1=CC=CC=C1N=NC2=C(NN(C2=O)C3=NC(=CS3)C4=CC=CC=C4)C [BAM7] + Cc1nc(Nc2ncc(C(=O)Nc3c(C)cccc3Cl)s2)cc(N2CCN(CCO)CC2)n1 [Dasatinib] (partner 0.075 µM)
In short: as §1

[3] = compound: CCOC1=CC=CC=C1N=NC2=C(NN(C2=O)C3=NC(=CS3)C4=CC=CC=C4)C [BAM7] + CC(C)C[C@H](NC(=O)[C@H](Cc1ccccc1)NC(=O)c1cnccn1)B(O)O [Bortezomib] (partner 0.002 µM)
In short: as §1

[4] = compound: CCn1c(-c2nonc2N)nc2c(C#CC(C)(C)O)ncc(OC[C@H]3CCCNC3)c21 + CC(=O)Nc1cccc(-n2c(=O)n(C3CC3)c(=O)c3c(Nc4ccc(I)cc4F)n(C)c(=O)c(C)c32)c1 [Trametinib] (partner 0.02 µM)
In short: as §1

Cell Line	relative viability ([1]; first compound 0.01 µM)	relative viability ([1]; first compound 0.03162 µM)	relative viability ([1]; first compound 0.1 µM)	relative viability ([1]; first compound 0.3162 µM)	relative viability ([1]; first compound 1 µM)	relative viability ([2]; first compound 0.5 µM)	relative viability ([2]; first compound 5 µM)	relative viability ([2]; first compound 15.81 µM)	relative viability ([2]; first compound 50 µM)	relative viability ([3]; first compound 0.5 µM)	relative viability ([3]; first compound 5 µM)	relative viability ([3]; first compound 15.81 µM)	relative viability ([3]; first compound 50 µM)	relative viability ([4]; first compound 0.01 µM)	relative viability ([4]; first compound 0.03162 µM)	relative viability ([4]; first compound 0.1 µM)	relative viability ([4]; first compound 0.3162 µM)	relative viability ([4]; first compound 1 µM)
SW 1573	0.89	0.799	0.812	0.728	0.763	0.575	0.65	0.454	0.431	0.953	1.07	1.07	0.972	0.438	0.553	0.476	0.381	0.33
A-427	0.978	1.23	1.1	0.981	0.991	0.845	0.71	0.664	0.826	0.965	0.978	0.893	1.04	0.771	0.81	0.742	0.691	0.775
NCI-H2347	0.836	0.841	–	0.798	0.676	0.303	0.345	–	0.339	1	1.27	1.32	1.2	0.251	0.314	0.242	0.263	0.332
NCI-H1355	0.954	1.05	0.937	0.906	0.81	0.572	0.61	0.46	0.549	1.2	1.16	1.13	1.11	0.464	0.415	0.463	0.386	0.382
NCI-H358	0.646	0.977	0.657	0.73	0.663	0.202	0.217	0.197	0.254	–	–	–	–	0.145	0.133	0.132	0.115	0.104
PC-3 [JPC-3]	0.982	1.04	1.12	0.902	1.08	1.04	0.91	1.02	0.946	0.824	0.751	0.782	0.585	0.702	–	0.732	0.648	0.687
NCI-H2228	0.762	0.985	0.767	0.555	0.872	0.598	0.639	0.509	0.521	1.31	1.31	0.798	1.21	0.553	0.449	0.468	0.325	0.197
HOP-62	1.08	1.13	1.08	0.985	1.16	0.636	0.727	0.601	0.649	0.854	0.98	1.05	0.847	0.366	0.367	0.41	0.387	0.364
